Assay results from PMC3985517, “Abscisic acid dynamics in roots detected with genetically encoded FRET sensors” (eLife, 2014).
Like-named read-outs stand apart in the source and are kept apart here.

How the values were obtained:
ABACUS1-2µ = type: biochemical, Arabidopsis; settings: Figure 3B-E
Arabidopsis seedlings = experiment: Primary root growth of ABACUS1 plant lines on ABA plates; type: in vivo
Description: (§1) For ABA treatments, 20 mM (±)-ABA was prepared freshly as a stock solution in 50 mM NaOH. Mock treatment plates were made using NaOH to keep pH consistent. Root tips were marked at the time of transfer and images were acquired after 4 days growth on vertical treatment plates. Root growth after transfer were measured using FIJI (http://fiji.sc/). Each experiment included ∼15 roots per genotype and was repeated three independent times with similar results. ABA sensitivity of seed germination rate of Arabidopsis seeds was assayed after sowing on ½ × MS agar medium plates supplemented with 0, 2 or 20 µM (±)-ABA. […] Plates were stratified for 2 days at +4°C after which they were transferred to a growth chamber with standard long day conditions (16 hr high light, 22°C, 70% RH). Seeds were considered germinated at radicle emergence and germination rate was assayed 9 days post sowing in three independent experiments of 100–200 seeds per genotype. The abi1-2, hab1-1, pp2ca-1 triple mutant line was a gift from Pedro Rodriguez ([Rubio et al., 2009]).

Arabidopsis seeds = experiment: Seed germination on ABA plates; type: in vivo; settings: all genotypes; plates with 20 µM (±)-ABA
Description: as §1

Arabidopsis roots [1] = system: Arabidopsis roots; set-up: method as in Grossmann et al., 2011; settings: ref Grossmann et al., 2011; cited from earlier work
[2] = set-up: method as in Kaiser and Hartung, 1981; settings: ref Kaiser and Hartung, 1981; cited from earlier work
Arabidopsis roots [3] = experiment: ABACUS1 responses in roots perfused with ABA in the RootChip16; type: in vivo
Description: The RootChip16 device was used as described in detail previously for the RootChip ([Grossmann et al., 2011], [2012]). Briefly, the device was sterilized by UV light exposure, immersed in liquid growth media (¼ × MS salts, 1.28 mM MES pH 5.7 supplemented with B vitamins at final concentrations of niacin 2.3 µM, thiamine 1.5 µM, pyridoxin 1.2 µM and myo-inositol 0.3 µM), and air in the root observation chambers was removed by applying suction at the solution outlets using a microliter pipette. 5-day old Arabidopsis seedlings, germinated on 5 mm long cut 10 µl pipette tips filled with solidified growth medium (½ × MS salts, 1% Agar, 2.56 mM MES pH 5.7 supplemented with B vitamins at final concentrations of niacin 4.6 µM, thiamine 3.0 µM, pyridoxin 2.4 µM and myo-inositol 0.6 µM, were transferred onto the chip by plugging the tips into the root inlets. The chip was incubated for 24 hr under standard long-day growth conditions (16 hr high light, 22°C, 70% RH) to allow roots to grow into the observation chambers. Before imaging, the RootChip16 was inserted from below into the central aperture of the carrier and fixed with tape. Pressure lines for control over micromechanical valves and flow lines for perfusion of solutions were connected. To actuate the push-up valves on the chip, a closing pressure of 15 p.s.i (1.03 bar) was applied to the water filled control lines. […]

O=S(=O)(NCc1ccccn1)c1ccc(Br)c2ccccc12 [Pyrabactin, pyrabactin]
increase in energy transfer of ABACUS1 (positive ratio change), in words (ABACUS1-2µ): induced

CC1=CC(=O)CC(C)(C)C1(O)/C=C/C(C)=C\C(=O)O (racemic) [(±)-ABA]
root growth of ABACUS1-2µ sensor lines (Arabidopsis seedlings; 20 µM exogenous (±)-ABA): almost completely inhibited
root growth of ABACUS1-80µ plants (Arabidopsis seedlings; 100 µM exogenous (±)-ABA): strongly inhibited
germination (Arabidopsis seeds): 0%

OC[C@H]1OC(O)[C@H](O)[C@@H](O)[C@@H]1O (stereo partly drawn) [Glucose, glucose]
time to saturation of sensor responses (Arabidopsis roots [1]): less than 1 min

CC1=CC(=O)CC(C)(C)[C@@]1(O)/C=C/C(C)=C\C(=O)O [ABA, abscisic acid]
pKa [2]: 4.7
accumulation rate of a non-pre-exposed root relative to a root pre-exposed to ABA (Arabidopsis roots [3]; first ABA pulse, 5 µM (±)-ABA, ABACUS1-2µ roots): nearly twice
time to saturation of sensor responses (Arabidopsis roots [3]; typical experiment, roots): ~15 min

O=c1[nH]c(=O)c2nc[nH]c2[nH]1 [Xanthine, xanthine]
increase in energy transfer of ABACUS1 (positive ratio change), in words (ABACUS1-2µ): did not occur
